# In PMC5402304, “Oxoaporphine Metal Complexes (Co^II, Ni^II, Zn^II) with High Antitumor Activity by Inducing Mitochondria-Mediated Apoptosis and S-phase Arrest in HepG2” (Scientific Reports, 2017):
# Values joined by “and” are separate entries in the source; they are usually repeats but may differ in a detail not shown here. Equal entries are not always repeated.
# Experiments:
# [1] = tested on: HepG2; test: Cell apoptosis assay by flow cytometry, Annexin V-FITC/PI; type: cell-based, human; details: HepG2, 5.0 μM, 24 h
# Protocol: The quantitative analysis of apoptotic HepG2 induced by 1–3 (1.0, 2.0 and 5.0 μM) and their corresponding metal salts (5.0 μM) after 24 h treatment, were investigated by flow cytometry and Annexin V-FITC/PI double staining. As depicted in Figs 7 and S6, 1–3 caused a significant increase in apoptotic cells comparing to the untreated cells.
# Cell cycle progression and apoptosis were determined by flow cytometric analysis. (a) Cell cycle arrest assay: HepG2 cells in their logarithmic phase were plated into 50 mL plates at a final density of 5−6 × 10^6 cells/well overnight, then they were treated with various doses (0.25, 0.5 and 1.0 μM) of 1–3 for another 24 h. Cells were trypsinized, collected, and fixed in ice-cold 75% ethanol at −20 °C overnight. After centrifugation, the fixed cells were rinsed with ice-cold phosphate buffered saline (PBS), and resuspended in 0.5 mL of PBS containing 100 μg/mL RNase, 50 μg/mL propidium iodide (PI) in the dark for 5−10 min. The cell cycle distribution was analyzed by FACS Calibur flow cytometer (BD) and calculated using ModFIT LT software. (b) Apoptosis assay: 1 × 10^5 HepG2 cells were plated in 6-well plates, after incubation for 24 h with complexes 1–3 at 1.0, 2.0 and 5.0 μM, cells were collected, and Apoptosis Detection kit FITC Annexin V was used to analyze the cell apoptosis according to the manufacturer’s instructions.
# [2] = Solution stability by HPLC; type: physicochemical; details: TBS; 0 and 24 h; mobile phase methanol/H2O 80/20
# Protocol: The stability of 1–3 in Tris-HCl buffer solution (TBS, pH = 7.35, containing 1% DMSO) for 0, 12 and 48 h were primarily analyzed by means of UV-Vis spectroscopy, as shown in Figure S1.
# The stability of 1–3 under physiological conditions ([…] buffer solution with pH value of 7.35, containing 1% DMSO), was carried out using UV-vis spectroscopy and HPLC. 1–3 were dissolved in DMSO at 1 × 10^−3 M, and then diluted by buffer solution. The UV-vis absorbance of these complexes at 0 h, 12 h and 48 h were measured, respectively. The solution stability of 3 was further confirmed by HPLC experiments. 3 in aqueous solution at 1.0 mg · mL^−1 was analyzed by HPLC at 0 h and 24 h respectively, with reversed-phase C18 column and methol/H2O (80:20) as mobile phase.
# [3] = tested on: BEL-7404; test: MTT cytotoxicity assay, BEL-7404; type: cell-based, human
# Protocol: (§1) The in vitro cytotoxicity of OD, 1–3 and the corresponding metal salts were determined by MTT assay towards a panel of human tumor cells including HepG2, T-24, BEL-7404, MGC80-3, SK-OV-3/DDP and normal HL-7702 cells. As the positive control, cisplatin was dissolved at a concentration of 1 mM in 0.154 M NaCl[32].
# (§2) The human tumor cell lines (BEL-7404, HepG2, MGC80–3, T-24, SK-OV-3/DDP and HeLa cells) and the human normal liver cell line HL-7702 were obtained from Shanghai Cell Bank in Chinese Academy of Sciences. Cells were cultured in Dulbecco’s modified Eagle’s medium (DMEM) or RPMI-1640 medium, which supplemented with 10% fetal bovine serum (FBS) and 100 U/mL penicillin and streptomycin. Cells were cultured at 37 °C in a humidified atmosphere with 5% CO2/95% air. Tested compounds (2.0 mM) were prepared as DMSO stock solution before they were diluted to working concentrations by PBS buffer (containing 0.5% DMSO), while cisplatin dissolved in 0.9% sodium chloride solution was used as positive controls.
# (§3) Cells in their logarithmic phase were seeded in 96-well plates with 5.5 × 10^3/180 μL per well for 24 h. Then 20 μL of compounds at various concentrations were added to each well to achieve final concentrations of 1.25, 2.5, 5.0, 10.0, and 20.0 μM. All the cells were incubated with test compounds for another 48 h before MTT assay. Control wells contained media with 0.5% DMSO. After 48 h of cultivation, 10 μL of MTT (5 mg/mL in PBS) was added to each well, and cells were incubated at 37 °C for 6 h. The contents in the wells were pipetted out carefully, and the formazan crystals formed were dissolved in 100 μL of DMSO, and the absorbance was measured by enzyme labeling instrument with 490 nm/630 nm double wavelength measurement. The IC50 value was defined as a drug concentration killing 50% cells in comparison with untreated controls, which was calculated by the Bliss method (n = 5). All tests were repeated in at least three independent trials.
# [4] = tested on: MGC80-3; test: MTT cytotoxicity assay, MGC80-3; type: cell-based, human
# Protocol: as §1, §2, §3
# [5] = tested on: caspase-3; test: Caspase-3 activation by flow cytometry (CaspGLOW); type: cell-based, human; details: HepG2, 1.0 μM, 24 h; control 4.2%
# Protocol: (§4) Caspase family is closely related to the cell apoptosis via the mitochondrial pathway, especially caspases-3, -8 and -9. To better understand the antitumor mechanisms, it needs to confirm whether caspase-3, -8 and -9 are activated when the tumor cells are treated with 1–3.
# (§5) The measurement of caspase-3, -8 and -9’s activities was performed by CaspGLOW fluorescein active caspase-3, -8 and -9 staining kit. HepG2 cells were treated with 1 μM 1–3 for 24 h, harvested at a density of 1 × 10^6 cells/mL, and then suspended in 300 μL volume with PBS. To the suspension, 1 μL of caspase-3 inhibitor (FITC-DEVD-FMK), caspase-8 inhibitor (FITC-IETD-FMK) or caspase-9 inhibitor (FITC-LEHD-FMK) was consequently added and incubated for 1 h at 37 °C in 5% CO2 incubator. The cells were then examined by a FACSAria II flow cytometer equipped with a 488 nm argon laser. The results were represented as the percent change on the activity compared with the control.
# [6] = tested on: HepG2; test: MTT cytotoxicity assay, HepG2; type: cell-based, human
# Protocol: as §1, §2, §3
# [7] = tested on: caspase-8; test: Caspase-8 activation by flow cytometry (CaspGLOW); type: cell-based, human; details: HepG2, 1.0 μM, 24 h; control 1.8%
# Protocol: as §4, §5
substance,measurement,setting,value
[Zn(OD)2(H2O)2] (ClO4)2 [Complex 3],population of apoptotic cells,[1],25.3%
same,stability in solution (HPLC chromatograms),[2],no obvious changes of HPLC chromatograms
same,inhibitive ratio,"[3]; BEL-7404, 20 μmol/L, 48 h",61.00±0.19%
same,IC50,"[3]; BEL-7404, 48 h, MTT",12.6 ± 0.45 µM
same,inhibitive ratio,"[4]; MGC80-3, 20 μmol/L, 48 h",67.30±0.21%
same,IC50,"[4]; MGC80-3, 48 h, MTT",4.31 ± 0.31 µM
same,proportion of activated caspase-3,[5],36.9% and 36.5%
same,inhibitive ratio,"[6]; HepG2, 20 μmol/L, 48 h",89.58±1.22%
same,IC50,"[6]; HepG2, 48 h, MTT",0.39 ± 0.03 µM
same,proportion of activated caspase-8,[7],41.5%
